Tests used:
[1] = Solubilities of various fatty acid soaps in water (Example 1); format: physicochemical
Procedure: Likewise, just as the type of fatty acid used influences soap properties, so does the choice of neutralizing agent. Therefore, various available inorganic alkalis were also compared.
The procedure for making the fatty acid soaps was to dissolve the inorganic alkali in the prescribed amount of water, heating to 150° F. The fatty acid was slowly added to the alkali solution and agitated for a few minutes.

[2] = Viscosity vs percentage real soap, Brookfield viscometer (Example 4, FIGURE); format: physicochemical
Description: A property of the soaps which points up this solubility advantage of C21 dicarboxylic acid soap and which is also important for C21 dicarboxylic acid utility is the viscosity of the soap. […] The solubility of the various soaps may be illustrated by the viscosity of the soaps which is shown in the accompanying figure. […] The coconut fatty acid potassium soap is somewhat poorer than the C21 dicarboxylic acid soap since its viscosity goes above twenty centipoises at 30% real soap.
This example illustrates a comparison of viscosity changes with potassium solids. Liquid soaps of fatty acids must be fairly fluid for ease in dispensing and using them. Therefore, a measure of the change in viscosity of a soap solution as percentage soap present increases is an easy method for determining the concentration of soap that can be used. The curves in the accompanying FIGURE show this relationship. A Brookfield viscometer was used to determine these curves at 25° C. […] The fact that 50% oleic acid/50% coconut soap is required to obtain a viscosity of 20 cps. at 30% real soap; whereas only 25% C21 dicarboxylic acid soap/75% tall oil fatty acid is needed to reach the same viscosity level is typical of the significance of the C21 dicarboxylic acid soaps.

[3] = Liquid soap formulations (Example 8); format: physicochemical; conditions: for pH of formulation: liquid soap formulations, excess base kept very low; for compatibility of pine oil with soap formulation: pine oil at 3% addition; for state of liquid soap: sodium hydroxide substituted for potassium hydroxide
Procedure: The formulation used was 12% coconut fatty acids, 3% soya or tall oil fatty acid, 4.4% KOH, 1% KCL, 80% water and a perfume as desired. In all of the soaps pine oil was added as the perfume at 3% addition.
The pine oil was compatible with the C21 dicarboxylic acid soap formulation. Of course, with C21 dicarboxylic acid soap much more concentrated, fluid soaps were prepared.
To further test the advantages of C21 dicarboxylic acid soap in liquid soaps, sodium hydroxide was substituted for the potassium hydroxide in each of the formulations mentioned above. […] In all of these formulations the excess base was kept at a very low level so that the pH's were about 9 for the C21 dicarboxylic acid and coconut fatty acid systems and about 11 for the oleic acid systems.

[4] = Shampoo formulations, soap content (Example 9); format: physicochemical; conditions: 99% solids
Description: A product similar to the liquid soaps in composition is shampoo. Basically, shampoos are simply perfumed soap solutions which need to lather easily and which have a fairly high soap content. Consequently, most shampoos consist from 50% to 100% of the solids as coconut fatty acid soaps. With such a formulation a viscous potassium soap of about 35% real soap (solids) can be prepared. If the triethanolamine soap is used, a 40% real soap may be formulated. As is obvious from the earlier discussion, C21 dicarboxylic acid soap would allow for greater flexibility in the amount of soap present in the shampoo and also allow for the utility of a lower priced cation, sodium.
An area closely related to the liquid soaps is shampoos. The formulations are similar but, since profuse sudsing is desired in shampoos and since low viscosity is not critical, the real soap content is more than twice as high. To get 35% soap in a formulation, coconut fatty acids or a blend of 50% coconut-50% oleic must be used. A 40% soap shampoo can be prepared using triethanolamine rather than potassium hydroxide to form the soap. […] C21 dicarboxylic acid has a major economic advantage in this application since sodium hydroxide could be used instead of potassium hydroxide.

[5] = one-half of the carboxyl groups as carboxylate anions
Description: Since each molecule of C21 dicarboxylic acid has two carboxyl groups of varying acidity it is possible to convert the most acidic of these to the soap and the molecule becomes water-soluble leaving a free acid group on each molecule. […] A soap solution of C21 dicarboxylic acid can be prepared at any pH above 6.5, so in the case of amine soaps one can prepare the soap in such a way as to have free acid groups rather than excess amine, so there is no amine odor.
Of course, these soaps all have a pH of about 6.7 and have one free carboxylic acid group in solution.
Since the C21 dicarboxylic acid has two acid groups of different strengths, it is very easy to prepare the mono or half soap of the diacid.

[6] = format: physicochemical
Description: is often desirable when making liquid soaps, as well as toilet soaps, having tailored properties, to blend together various fatty acids to achieve desirable characteristics and lessen the undesirable ones.

[7] = Fluidity and gelling of soaps (general description); format: physicochemical; conditions: potassium soap
Description: The C21 dicarboxylic acid soaps are made by neutralizing the C21 dicarboxylic acid. The neutralizing agent used is based on the solubility characteristics desired in the soap and economic considerations. The neutralizing agents contemplated include those of the following cations, sodium, potassium, lithium and ammonium. These cations may be obtained from such inorganic alkalis as caustic soda, caustic potash, and soda ash. Another cation which may be used is the ammonium cation. Organic amines may also be used, specifically amines such as triethylamine, monoethylamine, diethylamine, and alkanolamines, such as ethanolamine, triethanolamine and diethanolamine. The soaps made from the above listed neutralizing agents are all liquid at temperatures as low as 30° F.
For example, the potassium soap of oleic acid is a viscous fluid at about 18% solids and gels at 19%-20% solids. However, the potassium soap of oleic acid blended with 40% C21 dicarboxylic acid potassium soap is very fluid at 30 to 40% solids. This general characteristic of increased solubility is advantageous to all soap users for economy in shipping and handling. It also allows for cuts in production costs in applications where water is removed from the final product, since less water is added with the soap when a C21 dicarboxylic acid soap is used. […]

[8] = potassium soaps; cited from earlier work
[9] = Amine soaps: dilution with water and gelling (Example 5); format: physicochemical; conditions: triethylamine soap; diluted slowly with water, C21 soap down to 25% solids
Procedure: The C21 dicarboxylic acid-amine soaps were also prepared using diethanolamine and monoethanol amine.

[10] = cation K, 40 percent solids in water

## CCCCCCCCC(=O)O [Nonanoic acid (G9), Nonanoic acid]
[1]; cation K, 35 percent solids in water
  Characteristics: Viscous solution
[1]; [10]
  Characteristics: Gel

## 5 carboxy-4-hexyl-2-cyclohexene-1-octanoic acid and 6 carboxy-4-hexyl-2 cyclohexene-1-octanoic acid [C21 dicarboxylic acid]
[1]
  water solubility compared with soaps of conventional fatty acids: water soluble at higher solids content
[1]; cation K, 20 percent solids in water
  Characteristics: Solution
[1]; cation K, 80 percent solids in water
  Characteristics: Viscous solution
[1]; cation Li, 10 percent solids in water
  Characteristics: Solution
[1]; cation Na, 20 percent solids in water
  Characteristics: Solution
[1]; cation Na, 65 percent solids in water
  Characteristics: Viscous solution
[2]
  viscosity of blends with oleic acid soap and coconut soap: low viscosity blends
[3]
  pH of formulation: about 9
  state of liquid soap: very fluid
[3]; listed as C21 dicarboxylic acid soap
  compatibility of pine oil with soap formulation: compatible
[3]; listed as C21 dicarboxylic acid soaps
  compatibility of pine oil with soap formulation: very compatible
[3]; sodium hydroxide formulation, storage
  precipitation: no signs of precipitating after three months
[4]
  gelling: does not gel
[5]
  water-solubility of partly neutralized acid: water-soluble

## CCCCCCCC/C=C\CCCCCCCC(=O)O [Vegetable derived oleic acid (C18), oleic acid]
[6]
  Characteristics at 25° C.: Gel

## CCCCCCCC/C=C\CCCCCCCC(=O)O [potassium soap of oleic acid]
[2]; potassium soap solution, 25° C.
  percentage real soap at which viscosity exceeds twenty centipoises: 16 % real soap
[7]
  percent solids at which soap is a viscous fluid: about 18 % solids

## CCCCCCCC(=O)O [Octanoic acid (C8), Octanoic acid]
[1]; [10]
  Characteristics: Viscous solution
[1]; cation K, 45 percent solids in water
  Characteristics: Gel
[8]
  highest solids soaps that are still fluid at room temperature: 45%

## CCCCCCCC/C=C\CCCCCCCC(=O)O [oleic acid]
[9]
  gelling on dilution with water: a gel formed immediately upon the addition of water
[3]
  pH of formulation: about 11
  state of liquid soap: gels
[3]; potassium hydroxide formulation, in place of coconut fatty acids
  fluidity of liquid soap: very viscous soap of questionable utility
[8]
  highest solids soaps that are still fluid at room temperature: 20%

## CCCCCCCCCC(=O)O [Decanoic acid (C10), Decanoic acid]
[8]
  highest solids soaps that are still fluid at room temperature: 40%

## CCCCCCCCCCCC(=O)O [Lauric acid (C12), Lauric acid]
[1]; cation K, 33 percent solids in water
  Characteristics: Viscous solution
[1]; cation K, 36 percent solids in water
  Characteristics: Gel
[8]
  highest solids soaps that are still fluid at room temperature: 35%
